According to US10301267B2, “Compounds” (AstraZeneca AB, priority 2006, dated 2019):
Like-named read-outs stand apart in the source and are kept apart here.

Key:
Type in all cases: biochemical
[1] = target: T1, His6-tagged FGFR kinase domain (Homo sapiens, UniProt P11362, C488A/C584S); assay: FGFR Kinase assay - Elisa
T1 construct: FGFR kinase domain (amino acids 458-765, C488A, C584S) N-terminally fused to a His6-tag and TEV cleavage site; His6-tag plus linker and TEV cleavage site (printed as X1); made in house
Description: To determine inhibition of FGFR activity, kinase assays were conducted using ELISA (Enzyme-Linked Immunosorbent Assay) technology.
Kinase activity assays were performed in 384-well polypropylene plates (Matrix, Catalogue No. 4311. Matrix are part of Thermo Fisher Scientific, 22 Friars Drive, Hudson, N.H. 03051, USA) with a total volume of 40 μl in each well. Each well was coated with 2 μg of polyEAY substrate (Sigma, Catalogue No. P3899) at 4° C. overnight. The plates were then washed once with 100 μl PBS and once with 100 μl 50 mM HEPES (pH 7.4) prior to the addition of the kinase assay reagents. Reactions contained His6-tagged FGFR kinase domain (FGFR kinase domain (amino acids 458-765, C488A, C584S) N-terminally fused to a His6-tag and TEV cleavage site encoded by the following sequence; [[…]]. The final alanine denotes the start of the FGFR protein sequence. The resultant protein was expressed and purified based on Mohammadi et al, Cell Vol 86, 577-587 (1996). Each kinase reaction contained 0.1 ng His6-tagged FGFR kinase domain, 50 mM HEPES (pH 7.4), 0.1 mM Na3VO4, 0.1 mM DTT, 0.05% (v/v) Triton X100, 20 mM MgCl2, 160 μM ATP. Various concentrations of test compounds were each added in 5% (v/v) DMSO to yield a final assay DMSO concentration of 1.25% (v/v). The kinase reactions were incubated at room temperature for 45 minutes and stopped by washing the plate three times with 100 μl PBS plus 0.05% Tween. 40 μl of a one in 10000 dilution of 4G10-HRP antibody (Upstate Biotechnology, UBI 16-105. Upstate are part of Millipore Corporation, 290 Concord Road, Billerca Mass. 01821 USA) made up in 0.5% (w/v) BSA/PBS was then added to each well and the plates incubated at room temperature for one hour. Following this, the plates were then washed repeatedly with 100 μl PBS plus 0.05% Tween to remove all traces of the antibody solution. 40 μl of 50 μg/ml 3,3′,5,5′-Tetramethylbenzidine (Sigma, Catalogue No. T2885), 0.05M phosphate-citrate buffer, containing 0.03% sodium perborate was added to each well and the plates incubated at room temperature for twelve minutes. The colour reaction was stopped by the addition of 20 μl 2M H2SO4 and the plates read at 450 nm on a Spectrafluor Plus (Tecan Trading AG, Switzerland). In the assay, compounds were tested at a range of concentrations.
Percentage inhibition at 1 uM, as expressed herein, is a calculated value based on the curve fit that was generated experimentally. From the fitted curve plot, the effect of compound at a concentration of 1 uM was calculated as a percentage inhibition. The IC50 value is the concentration of test compound that inhibits 50% of FGFR kinase activity.

FGFR1 active kinase [2] = target: T2, FGFR1 active kinase (Homo sapiens, UniProt P11362); assay: FGFR Kinase assay - Caliper; on FGFR Kinase assay - Caliper, IC50: 408 µM ATP
FGFR1 active kinase [3] = target: T2, FGFR1 active kinase; assay: FGFR Kinase assay - Caliper Echo Dosing; conditions: FGFR1 7.2 nM, 408 uM ATP, acoustic dosing; geometric mean of n
[4] = FGFR inhibition test, Elisa, read-out: Activity class (FGFR Kinase assay - Elisa)
[5] = FGFR1 […], 408 uM ATP, mean of n as printed, read-out: FGFR Kinase assay - Caliper, IC50
[6] = FGFR inhibition test, Caliper, read-out: Activity class (FGFR Kinase assay - Caliper)

T2 sequence (P11362 22-822): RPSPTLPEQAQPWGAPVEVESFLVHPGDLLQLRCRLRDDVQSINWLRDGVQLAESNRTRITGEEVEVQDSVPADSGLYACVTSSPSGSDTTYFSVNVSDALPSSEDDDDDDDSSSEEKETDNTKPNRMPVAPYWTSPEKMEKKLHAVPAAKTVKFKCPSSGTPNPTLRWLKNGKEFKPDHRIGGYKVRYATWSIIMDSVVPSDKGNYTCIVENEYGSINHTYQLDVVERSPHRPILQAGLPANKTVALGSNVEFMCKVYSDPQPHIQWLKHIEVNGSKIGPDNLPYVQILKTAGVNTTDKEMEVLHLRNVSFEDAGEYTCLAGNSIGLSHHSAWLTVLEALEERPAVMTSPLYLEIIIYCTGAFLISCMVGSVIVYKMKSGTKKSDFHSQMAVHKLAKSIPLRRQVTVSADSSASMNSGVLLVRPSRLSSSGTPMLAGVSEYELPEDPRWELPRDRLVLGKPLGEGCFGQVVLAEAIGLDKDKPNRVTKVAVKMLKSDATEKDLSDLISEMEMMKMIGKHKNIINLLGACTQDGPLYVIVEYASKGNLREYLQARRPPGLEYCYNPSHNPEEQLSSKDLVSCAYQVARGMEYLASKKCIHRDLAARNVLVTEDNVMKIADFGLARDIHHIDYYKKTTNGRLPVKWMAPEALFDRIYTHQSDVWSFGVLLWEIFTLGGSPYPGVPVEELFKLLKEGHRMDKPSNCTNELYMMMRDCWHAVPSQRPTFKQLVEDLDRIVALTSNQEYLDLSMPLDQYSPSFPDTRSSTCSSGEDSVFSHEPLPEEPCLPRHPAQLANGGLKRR
T1 sequence (P11362 458-765 C488A/C584S): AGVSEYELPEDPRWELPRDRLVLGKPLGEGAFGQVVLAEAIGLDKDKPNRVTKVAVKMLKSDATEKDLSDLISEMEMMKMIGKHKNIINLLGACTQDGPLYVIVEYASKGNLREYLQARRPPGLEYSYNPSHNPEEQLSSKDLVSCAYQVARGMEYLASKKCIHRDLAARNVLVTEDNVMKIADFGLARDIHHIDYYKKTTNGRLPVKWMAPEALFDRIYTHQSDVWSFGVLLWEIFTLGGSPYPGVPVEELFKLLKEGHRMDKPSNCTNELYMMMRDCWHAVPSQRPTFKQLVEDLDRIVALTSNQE

Row | IC50 (FGFR1 active kinase [3]) [nM] | SMILES | other results
1 |  | COc1ccc(C(=O)Nc2cc(CCc3cc(OC)cc(OC)c3)n[nH]2)cc1 [Example 3, N-[5-[2-(3,5-dimethoxyphenyl)ethyl]-2H-pyrazol-3-yl]-4-methoxy-benzamide] | IC50 [1, 4]: < 300 nM; IC50 (FGFR1 active kinase [2]; [5]): 132 nM; IC50 (FGFR1 active kinase [2]; [6]): < 300 nM
2 |  | COc1cc(CCc2cc(NC(=O)c3ccc(N4CCOCC4)cc3)[nH]n2)cc(OC)c1 [Example 4, N-[5-[2-(3,5-dimethoxyphenyl)ethyl]-2H-pyrazol-3-yl]-4-morpholin-4-yl-benzamide] | IC50 [1, 4]: < 300 nM; IC50 (FGFR1 active kinase [2]; [5]): 68 nM; IC50 (FGFR1 active kinase [2]; [6]): < 300 nM
3 |  | COc1cc(CCc2cc(NC(=O)c3ccc(CN4CCC(F)CC4)cc3)[nH]n2)cc(OC)c1 [Example 5, N-[5-[2-(3,5-dimethoxyphenyl)ethyl]-2H-pyrazol-3-yl]-4-[(4-fluoropiperidin-1-yl)methyl]benzamide] | IC50 [1, 4]: < 300 nM; IC50 (FGFR1 active kinase [2]; [5]): 63 nM; IC50 (FGFR1 active kinase [2]; [6]): < 300 nM
4 |  | COc1cc(COc2cc(NC(=O)c3ccc(N4CCN(C)CC4)cc3)[nH]n2)cc(OC)c1 [Example 12, N-[5-[(3,5-dimethoxyphenyl)methoxy]-2H-pyrazol-3-yl]-4-(4-methylpiperazin-1-yl)benzamide] | IC50 [1, 4]: < 300 nM; IC50 ([1]; polyEAY substrate, 160 μM ATP, read-out: FGFR Kinase assay - Elisa, IC50): 60 nM
5 | 14.9 | COc1cc(CCc2cc(NC(=O)c3cnc(N4CCN(C)CC4)nc3)[nH]n2)cc(OC)c1 [Example 85, N-[5-[2-(3,5-Dimethoxyphenyl)ethyl]-2H-pyrazol-3-yl]-2-(4-methylpiperazin-1-yl)pyrimidine-5-carboxamide] | IC50 (FGFR1 active kinase [2]; [5]): 118 nM
6 | 0.77 | COc1cc(CCc2cc(NC(=O)c3ccc(N4CCN(C5CC5)CC4)cc3)n[nH]2)cc(OC)c1 [Example 88, 4-(4-Cyclopropylpiperazin-1-yl)-N-[5-[2-(3,5-dimethoxyphenyl)ethyl]-1H-pyrazol-3-yl]benzamide] | IC50 (FGFR1 active kinase [2]; [5]): 156 nM
7 | 3 | CNC1CCN(c2cnc(C(=O)Nc3cc(CCc4cc(OC)cc(OC)c4)n[nH]3)cn2)C1 (centres unmarked) [Example 161, N-[5-[2-(3,5-dimethoxyphenyl)ethyl]-2H-pyrazol-3-yl]-5-(3-methylaminopyrrolidin-1-yl)pyrazine-2-carboxamide] | 
8 | 36 | COc1cc(CCc2cc(NC(=O)c3cnc(C4CCN(C)CC4)nc3)[nH]n2)cc(OC)c1 [Example 162, N-[5-[2-(3,5-dimethoxyphenyl)ethyl]-2H-pyrazol-3-yl]-2-(1-methylpiperidin-4-yl)pyrimidine-5-carboxamide] | 
9 | 1.8 | COc1cc(CCc2cc(NC(=O)c3cnc(N4CCCN(C)CC4)cn3)[nH]n2)cc(OC)c1 [Example 163, N-[5-[2-(3,5-dimethoxyphenyl)ethyl]-2H-pyrazol-3-yl]-5-(4-methyl-1,4-diazepan-1-yl)pyrazine-2-carboxamide] | 
10 | 0.78 | C=CCN1CCCN(c2ccc(C(=O)Nc3cc(CCc4cc(OC)cc(OC)c4)n[nH]3)cc2)CC1 [Example 164, N-[5-[2-(3,5-dimethoxyphenyl)ethyl]-2H-pyrazol-3-yl]-4-(4-prop-2-enyl-1,4-diazepan-1-yl)benzamide] | 
11 | 0.064 | COc1cc(CCc2cc(NC(=O)c3ccc(N4CCCN(C5CC5)CC4)cc3)[nH]n2)cc(OC)c1 [Example 165, 4-(4-cyclopropyl-1,4-diazepan-1-yl)-N-[5-[2-(3,5-dimethoxyphenyl)ethyl]-2H-pyrazol-3-yl]benzamide] | 
12 | 0.7 | COc1cc(CCc2cc(NC(=O)c3ccc(N4CCCN(C(C)C)CC4)cc3)[nH]n2)cc(OC)c1 [Example 166, N-[5-[2-(3,5-dimethoxyphenyl)ethyl]-2H-pyrazol-3-yl]-4-(4-propan-2-yl-1,4-diazepan-1-yl)benzamide] | 
13 | 0.63 | COc1cc(CCc2cc(NC(=O)c3cnc(N4CCCN(C(C)C)CC4)cn3)[nH]n2)cc(OC)c1 [Example 167, N-[5-[2-(3,5-dimethoxyphenyl)ethyl]-2H-pyrazol-3-yl]-5-(4-propan-2-yl-1,4-diazepan-1-yl)pyrazine-2-carboxamide] | 
14 | 1.5 | COc1cc(CCc2cc(NC(=O)c3ccc(N4CCCN(C(C)C)CC4)s3)[nH]n2)cc(OC)c1 [Example 168, N-[5-[2-(3,5-dimethoxyphenyl)ethyl]-2H-pyrazol-3-yl]-5-(4-propan-2-yl-1,4-diazepan-1-yl)thiophene-2-carboxamide] | 
15 | 2.7 | CCN1CCCN(c2cnc(C(=O)Nc3cc(CCc4cc(OC)cc(OC)c4)n[nH]3)cn2)CC1 [Example 169, N-[5-[2-(3,5-dimethoxyphenyl)ethyl]-2H-pyrazol-3-yl]-5-(4-ethyl-1,4-diazepan-1-yl)pyrazine-2-carboxamide] | 
16 | 0.71 | CCN1CCCN(c2ccc(C(=O)Nc3cc(CCc4cc(OC)cc(OC)c4)n[nH]3)cc2)CC1 [Example 170, N-[5-[2-(3,5-dimethoxyphenyl)ethyl]-2H-pyrazol-3-yl]-4-(4-ethyl-1,4-diazepan-1-yl)benzamide] | 
17 | 9.2 | CCN1CCCN(c2ncc(C(=O)Nc3cc(CCc4cc(OC)cc(OC)c4)n[nH]3)cn2)CC1 [Example 171, N-[5-[2-(3,5-dimethoxyphenyl)ethyl]-2H-pyrazol-3-yl]-2-(4-ethyl-1,4-diazepan-1-yl)pyrimidine-5-carboxamide] | 
18 | 3.4 | C=CCN1CCCN(c2cnc(C(=O)Nc3cc(CCc4cc(OC)cc(OC)c4)n[nH]3)cn2)CC1 [Example 172, N-[5-[2-(3,5-dimethoxyphenyl)ethyl]-2H-pyrazol-3-yl]-5-(4-prop-2-enyl-1,4-diazepan-1-yl)pyrazine-2-carboxamide] | 
19 | 18 | COc1cc(CCc2cc(NC(=O)c3cnc(N4CCCN(C(C)C)CC4)nc3)[nH]n2)cc(OC)c1 [Example 173, N-[5-[2-(3,5-dimethoxyphenyl)ethyl]-2H-pyrazol-3-yl]-2-(4-propan-2-yl-1,4-diazepan-1-yl)pyrimidine-5-carboxamide] | 
20 | 3.7 | COc1cc(CCc2cc(NC(=O)c3cnc(N4CCCN(C5CC5)CC4)cn3)[nH]n2)cc(OC)c1 [Example 174, 5-(4-cyclopropyl-1,4-diazepan-1-yl)-N-[5-[2-(3,5-dimethoxyphenyl)ethyl]-2H-pyrazol-3-yl]pyrazine-2-carboxamide] | 
21 | 7 | C=CCN1CCCN(c2ncc(C(=O)Nc3cc(CCc4cc(OC)cc(OC)c4)n[nH]3)cn2)CC1 [Example 175, N-[5-[2-(3,5-dimethoxyphenyl)ethyl]-2H-pyrazol-3-yl]-2-(4-prop-2-enyl-1,4-diazepan-1-yl)pyrimidine-5-carboxamide] | 
22 | 5.8 | COc1cc(CCc2cc(NC(=O)c3cnc(N4CCCN(C)CC4)nc3)[nH]n2)cc(OC)c1 [Example 176, N-[5-[2-(3,5-dimethoxyphenyl)ethyl]-2H-pyrazol-3-yl]-2-(4-methyl-1,4-diazepan-1-yl)pyrimidine-5-carboxamide] | 
23 | 7.3 | COc1cc(CCc2cc(NC(=O)c3cnc(N4CCCN(C5CC5)CC4)nc3)[nH]n2)cc(OC)c1 [Example 177, 2-(4-cyclopropyl-1,4-diazepan-1-yl)-N-[5-[2-(3,5-dimethoxyphenyl)ethyl]-2H-pyrazol-3-yl]pyrimidine-5-carboxamide] | 
24 | 1.1 | CNC(=O)c1cccc(CCc2cc(NC(=O)c3ccc(N4CCN(C)CC4)cc3)[nH]n2)c1 [Example 178, N-[5-[2-[3-(methylcarbamoyl)phenyl]ethyl]-2H-pyrazol-3-yl]-4-(4-methylpiperazin-1-yl)benzamide] | 
25 | 0.68 | CCN1CCN(c2ccc(C(=O)Nc3cc(OCc4cc(OC)cc(OC)c4)n[nH]3)cc2)CC1 [Example 179, N-[5-[(3,5-dimethoxyphenyl)methoxy]-2H-pyrazol-3-yl]-4-(4-ethylpiperazin-1-yl)benzamide] | 
26 | 1.7 | CCN1CCN(c2ccc(C(=O)Nc3cc(CCc4cc(OC)cc(OC)c4)n[nH]3)cc2)CC1 [Example 180, N-[5-[2-(3,5-dimethoxyphenyl)ethyl]-2H-pyrazol-3-yl]-4-(4-ethylpiperazin-1-yl)benzamide] | 
